# Measured values reported in patent publication US20220312771A1, “BIOCIDAL COMPOSITE MATERIAL” (PENNOG LIMITED, priority 2019, published 2022).
# Test system: Chlorella sp.
# Assay: Growth of Chlorella sp. in Jaworskis Medium with different concentrations of copper
# Assay type: cell-based
# Conditions: 14 days
# Protocol: Fresh water algae Chlorella sp. cultivated at between 10° C. and 20° C. for 14 days on Jaworskis Medium (Table below) was inoculated into fresh, sterile Jaworskis Medium (prepared as per Table 11) containing copper sulphate solution and copper-containing soak solutions. The soak solution was obtained from the third soak of the second cycle of phototreated MSMCu from Example 3. The extent of growth of Chlorella sp. was observed after a further 14 days (Table 12).
# After 14 days in different concentrations of copper.
structure (smiles),measurement,setting,value
"O=S(=O)([O-])[O-].[Cu+2] [Copper sulphate solution, copper sulphate]","Growth of Chlorella sp., Abs 665 nm",copper concentration 1 μg/L,0.137
same,"Growth of Chlorella sp., Abs 780 nm",copper concentration 1 μg/L,0.118
same,"Growth of Chlorella sp., Abs 665 nm",copper concentration 2 μg/L,0.143
same,"Growth of Chlorella sp., Abs 780 nm",copper concentration 2 μg/L,0.128
same,"Growth of Chlorella sp., Abs 665 nm",copper concentration 5 μg/L,0.103
same,"Growth of Chlorella sp., Abs 780 nm",copper concentration 5 μg/L,0.096
same,"Growth of Chlorella sp., Abs 665 nm",copper concentration 7 μg/L,0.081
same,"Growth of Chlorella sp., Abs 780 nm",copper concentration 7 μg/L,0.077
same,"Growth of Chlorella sp., Abs 665 nm",copper concentration 9 μg/L,0.092
same,"Growth of Chlorella sp., Abs 780 nm",copper concentration 9 μg/L,0.077
